Data from patent US9453031B2, “Chemical entities” (Fundación Centro Nacional de Investigaciones Oncológicas …, priority 2013, dated 2016).

Legend:
ATR [1] = target: T1, ATR (Homo sapiens (Human), UniProt Q13535); test: Cellular ATR inhibition, western blot of CHK1(S345) phosphorylation in hydroxyurea treated cells; assay type: cell-based; conditions: HT29 cells
Procedure: In addition to the selective system described above, Example compounds presented here were screened for their ability to inhibit intracellular ATR using a western blot assay to detect phosphorylation of the ATR substrate CHK1(S345) in hydroxyurea treated cells. HT29 cells are plated at 500,000 cells per well in 6-well plates in RPMI media (Sigma R6504) supplemented with 10% foetal bovine serum (Sigma F7524), Penicillin/Streptomycin solution diluted 1:100 (Gibco 15070-063), and fungizone (Gibco, 15290-018), and allowed to adhere overnight at 37° C. in 5% CO2. Compounds are then added to the cell media from a final concentration of 10 μM in 3-fold serial dilutions and the cells are incubated at 37° C. in 5% CO2. After 15 min, hydroxyurea (Sigma H8627) is added to a final concentration of 2.5 mM. After 30 min of treatment with hydroxyurea, the cells are washed in PBS, lysed adding 50 μl of in protein lysis buffer (50 mM Tris pH 7.5, 150 mM NaCl, 1% IGEPAL CO-630 (Sigma, Ref. 542334-100G-A), Phospho Stop (Roche, Ref. 04906837001) and Complete Mini EDTA free (Roche, Ref. 11836170001)). The protein content of the lysates was determined by the modified method of Bradford (Sigma, Ref. B6916). The proteins were resolved by SDS-PAGE and transferred to nitrocellulose membrane (VWR International Eurolab, Ref. 732-4007). The membranes were incubated overnight at 4° C. with antibodies specific for total CHK1 (Santa Cruz Biotechnology, sc-8404), phosphoserine-345 CHK1 (Cell Signaling Technology #2348) they were washed and then incubated with IRDye800 conjugated anti-mouse (Pierce/Cultek, 35521) and Alexa Fluor 680 goat anti-rabbit IgG secondary antibodies (Invitrogen, A21076). The bands were visualized and quantified using an Odyssey infrared imaging system (Li-Cor Biosciences). The percentage of phosphorylated CHK1 vs total CHK1 in cells treated with hydroxyurea was taken as hundred percent of phosphorylation. The percentage of CHK1 phosphorylation is finally plotted against concentration for each compound and EC50s for intracellular ATR inhibition are calculated using ActivityBase from IDBS.

ATR [2] = target: T1, ATR; test: Cellular ATR inhibition, pChk1 Ser345 after UV mimetic 4NQO; assay type: cell-based; conditions: HT-29, read-out: UV mimetic inhibition of CHK1P at 10 μM (%); 10 μM compound, 3 μM 4NQO, HT29 cells
Excerpt: (§1) ATM and ATR have distinct and overlapping responses to DNA damage. They must participate together and responses must be coordinated. Both pathways may be activated by ionizing radiation, and UV. As UV treatment is not practical for use in a high throughput cell assay, the UV mimetic 4NQO (Sigma) was chosen to activate the ATR and ATM DNA damage response pathway.
(§2) Chk1, a downstream protein kinase of ATR, has a key role in DNA damage checkpoint control, as well as Chk2 downstream of ATM. […] This assay measures a decrease in phosphorylation of Chk1 (Ser 345) and […] in HT29 colon adenocarcinoma cells following treatment with compound and the UV mimetic 4NQO. Compounds at 1 mM were created by diluting in 100% DMSO and then diluted 1:100 into assay media (RPMI, 10% FCS, 1% glutamine). Cells were plated in 6 well Costar plates at 5×10^5 cells per mL in 2 mL RPMI, 10% FCS, 1% glutamine and grown for 24 hrs. Following addition of compound the cells were incubated for 60 minutes. A final concentration of 3 μM 4NQO (prepared in 100% DMSO) was then added and the cells incubated for a further 60 mins. The cells are lysed and pChk1 Ser345 and pCHK2 Thr68 (Cell Signaling Technology, #2661) versus total CHK1 and CHK2 (Santa Cruz Biotechnology, se-5278) respectively has analysed by western blot as described above. The percentage of phosphorylated CHK1 versus total CHK1 or p-CHK2 versus total CHK2 in cells treated with 4NQO was taken as hundred percent of phosphorylation. The percentage of CHK1 or CHK2 phosphorylation is finally plotted against concentration for each compound and EC50s for intracellular ATR inhibition are calculated using ActivityBase from IDBS.

ATM = ATM (Homo sapiens (Human), UniProt Q13315); test: Cellular ATM inhibition, pCHK2 Thr68 after UV mimetic 4NQO; assay type: cell-based; conditions: HT-29, read-out: UV mimetic inhibition of CHK2P at 10 μM (%); 10 μM compound, 3 μM 4NQO, HT29 cells
Excerpt: as §1, §2

CYP 1A2 = CYP 1A2 (Homo sapiens (Human), UniProt P05177); test: CYP inhibition assay (P450-Glo); assay type: in vitro ADME; conditions: recombinant CYP
Chain of CYP 1A2 (P05177 whole entry): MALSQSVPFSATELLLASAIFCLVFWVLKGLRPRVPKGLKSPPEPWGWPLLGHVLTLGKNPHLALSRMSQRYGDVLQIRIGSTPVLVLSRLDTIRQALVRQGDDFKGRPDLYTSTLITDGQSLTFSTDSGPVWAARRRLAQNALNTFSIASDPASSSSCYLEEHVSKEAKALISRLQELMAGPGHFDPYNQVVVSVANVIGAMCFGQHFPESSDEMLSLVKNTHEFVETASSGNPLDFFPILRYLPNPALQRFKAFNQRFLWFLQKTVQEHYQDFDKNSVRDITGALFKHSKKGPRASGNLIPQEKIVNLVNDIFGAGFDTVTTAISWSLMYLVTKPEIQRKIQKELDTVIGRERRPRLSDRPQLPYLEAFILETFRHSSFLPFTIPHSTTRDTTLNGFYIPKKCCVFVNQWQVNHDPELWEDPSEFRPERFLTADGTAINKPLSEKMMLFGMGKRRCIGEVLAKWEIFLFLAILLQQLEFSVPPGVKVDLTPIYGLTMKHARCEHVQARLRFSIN

CYP 2C19 = CYP 2C19 (Homo sapiens (Human), UniProt P33261); test: CYP inhibition assay (P450-Glo); assay type: in vitro ADME; conditions: recombinant CYP
Chain of CYP 2C19 (P33261 whole entry): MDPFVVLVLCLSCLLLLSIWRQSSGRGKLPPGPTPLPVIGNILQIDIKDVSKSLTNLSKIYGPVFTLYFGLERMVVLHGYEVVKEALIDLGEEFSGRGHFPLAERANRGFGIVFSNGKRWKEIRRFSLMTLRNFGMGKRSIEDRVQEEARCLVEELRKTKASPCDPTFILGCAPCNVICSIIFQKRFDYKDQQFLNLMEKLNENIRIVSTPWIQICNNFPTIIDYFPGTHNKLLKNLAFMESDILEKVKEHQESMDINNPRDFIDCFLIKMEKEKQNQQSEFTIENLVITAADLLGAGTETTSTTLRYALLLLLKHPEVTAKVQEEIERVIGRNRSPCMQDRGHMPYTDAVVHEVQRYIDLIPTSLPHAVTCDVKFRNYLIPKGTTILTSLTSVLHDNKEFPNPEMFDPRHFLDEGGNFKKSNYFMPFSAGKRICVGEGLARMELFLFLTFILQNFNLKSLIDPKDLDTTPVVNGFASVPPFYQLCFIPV

CYP 2D6 = CYP 2D6 (Homo sapiens (Human), UniProt P10635); test: CYP inhibition assay (P450-Glo); assay type: in vitro ADME; conditions: recombinant CYP
Eμmyc lymphoma cells = test: In vivo efficacy, mice injected intravenously with Eμmyc lymphoma cells; conditions: C57BL/6 mice
Procedure: The efficacy of compounds of the invention alone or in combination with chemotherapeutics agents were measured in vivo by implanting allografts or xenografts of cancer cells in rodents and treating the tumour-bearing animals with the compounds alone or in combination with chemotherapeutics agents.
Recipient mice were monitored for tumor formation by the presence of tumoral cells in the blood (LDH measurement), and twice a week by palpation of the pre-scapular and cervical lymph-nodes, once a week by sonography measurement of thoracic lymph-nodes size. […] Efficacy of the treatment was done evaluating the relative weight of all tumoral tissues (spleen, salivary lymph-nodes, mammary lymph-nodes, thymus and mesenteric lymph-nodes) versus body weight substrating the relative weight of same normal tissues. Bars represent standard error of the mean (n=8).

CYP 2C9 = CYP 2C9 (Homo sapiens (Human), UniProt P11712); test: CYP inhibition assay (P450-Glo); conditions: read-out: P450-2C9 IC50; recombinant CYP
CYP 3A4 = CYP 3A4 (Homo sapiens (Human), UniProt P08684); test: CYP inhibition assay (P450-Glo); conditions: read-out: P450-3A4 IC50; recombinant CYP
PI3K (p110α/p85α) = PI3K (p110α/p85α) (Homo sapiens (Human), UniProt P42336); test: PI3K alpha activity assay (ADP Hunter Plus); assay type: biochemical; conditions: 50 μM ATP, 30 μM PIP2; read-out: PI3Kα IC50
Procedure: The kinase activity was measured by using the commercial ADP Hunter™ Plus assay available from DiscoveRx (#33-016), which is a homogeneous assay to measure the accumulation of ADP, a universal product of kinase activity. […] The reaction was carried out for 1 hour at 25° C. Reagent A and B were sequentially added to the wells and plates were incubated for 30 min at 37° C. Fluorescence counts were read in a Victor instrument (Perkin Elmer) with the recommended settings (544 and 580 nm as excitation and emission wavelengths, respectively).

mTOR = mTOR (Homo sapiens (Human), UniProt P42345); test: mTOR activity assay (LanthaScreen); assay type: biochemical
Chain of mTOR (P42345 1360-2549): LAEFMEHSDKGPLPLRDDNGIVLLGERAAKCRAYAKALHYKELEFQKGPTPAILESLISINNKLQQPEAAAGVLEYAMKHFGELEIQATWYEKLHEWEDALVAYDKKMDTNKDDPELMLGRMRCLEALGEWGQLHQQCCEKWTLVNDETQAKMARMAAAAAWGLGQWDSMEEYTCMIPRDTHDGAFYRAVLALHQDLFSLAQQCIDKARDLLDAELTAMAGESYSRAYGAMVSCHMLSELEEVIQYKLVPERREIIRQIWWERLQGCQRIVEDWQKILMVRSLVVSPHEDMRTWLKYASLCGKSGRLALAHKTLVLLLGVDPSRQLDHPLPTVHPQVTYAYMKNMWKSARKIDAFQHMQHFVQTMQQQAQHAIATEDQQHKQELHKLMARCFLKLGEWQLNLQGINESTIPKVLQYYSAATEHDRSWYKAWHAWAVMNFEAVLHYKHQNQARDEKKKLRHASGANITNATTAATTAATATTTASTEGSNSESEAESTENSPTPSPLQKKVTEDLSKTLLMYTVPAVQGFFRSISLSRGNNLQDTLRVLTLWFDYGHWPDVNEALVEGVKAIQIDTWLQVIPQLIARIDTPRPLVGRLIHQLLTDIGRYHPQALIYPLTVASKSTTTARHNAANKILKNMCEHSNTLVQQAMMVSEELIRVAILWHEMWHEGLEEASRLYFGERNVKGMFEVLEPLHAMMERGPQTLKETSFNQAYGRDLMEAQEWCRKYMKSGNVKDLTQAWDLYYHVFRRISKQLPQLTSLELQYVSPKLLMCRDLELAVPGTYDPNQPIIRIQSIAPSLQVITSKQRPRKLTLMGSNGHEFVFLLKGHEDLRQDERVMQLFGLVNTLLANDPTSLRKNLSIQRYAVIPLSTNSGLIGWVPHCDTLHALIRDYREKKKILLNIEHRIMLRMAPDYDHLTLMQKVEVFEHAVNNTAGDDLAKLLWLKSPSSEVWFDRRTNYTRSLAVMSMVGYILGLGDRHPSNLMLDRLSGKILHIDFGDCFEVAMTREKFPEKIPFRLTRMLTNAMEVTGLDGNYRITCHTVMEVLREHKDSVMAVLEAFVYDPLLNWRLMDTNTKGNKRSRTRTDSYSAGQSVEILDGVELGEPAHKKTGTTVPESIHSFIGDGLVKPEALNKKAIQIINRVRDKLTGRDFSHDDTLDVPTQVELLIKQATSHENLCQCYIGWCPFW
Procedure: The enzymatic mTOR activity was measured using a LanthaScreen™ kinase activity assay (Invitrogen). The enzyme was purchased from Invitrogen (PV4754), as well as the GFP-labelled substrate (4EBP1-GFP; PV4759) and the Tb-antip4EBP1(pThr46) antibody (PV4757). The assay was performed in 50 Mm HEPES buffer, pH 7.5, containing 1.5 mM MnCl2, 10 mM MgCl2, 1 mM EGTA, 2.5 mM DTT and 0.01% Tween-20. The concentration of the assay components were the following: 0.24 nM mTOR kinase, 400 nM 4EBP1-GFP, […] and serial dilutions of the compound (inhibitor) to be evaluated. After 1 h incubation at room temperature, 20 mM EDTA was used to stop the reaction and terbium-labelled antibody (4 nM) added to detect phosphorylated product. The antibody associates with the phosphorylated product resulting in an increased TR-FRET value. The TR-FRET value (a dimensionless number) was calculated as the ratio of the acceptor signal (GFP, emission at 520 nm) to the donor signal (terbium, emission at 495 nm).

DNA-PK = DNA-PK (Homo sapiens (Human), UniProt P78527); test: DNAPK activity assay (ADP Hunter Plus); assay type: biochemical; conditions: 75 μM ATP
Procedure: The kinase activity was measured by using the commercial ADP Hunter™ Plus assay available from DiscoveRx (#90-0083), which is a homogeneous assay to measure the accumulation of ADP, a universal product of kinase activity. The enzyme, DNA-PK was purchased from Promega (#V5811). The assay was done following the manufacturer recommendations with slight modifications: Mainly the kinase buffer was replace by 15 mM HEPES, pH 7.5, 10 mM MgCl2, 20 mM NaCl, 1 mM EGTA, 0.1 mg/mL BGG, 0.02% Tween 20. The DNA-PK was assayed in a titration experiment to determine the optimal protein concentration for the inhibition assay. To calculate the […] of the Compounds, serial 1:3 dilutions of the compounds were added to the enzyme at a fixed concentration (2 U/μL). The enzyme was preincubated with the inhibitor and 200 μM DNA substrate and then ATP was added to a final 75 μM concentration. Reaction was carried out for 1 hour at 37° C. Reagent A and B were sequentially added to the wells and plates were incubated for 30 min at RT. Fluorescence counts were read in a EnVision instrument (Perkin Elmer) with the recommended settings (550 and 590 nm as excitation and emission wavelengths, respectively).

T1 sequence (Q13535 whole entry): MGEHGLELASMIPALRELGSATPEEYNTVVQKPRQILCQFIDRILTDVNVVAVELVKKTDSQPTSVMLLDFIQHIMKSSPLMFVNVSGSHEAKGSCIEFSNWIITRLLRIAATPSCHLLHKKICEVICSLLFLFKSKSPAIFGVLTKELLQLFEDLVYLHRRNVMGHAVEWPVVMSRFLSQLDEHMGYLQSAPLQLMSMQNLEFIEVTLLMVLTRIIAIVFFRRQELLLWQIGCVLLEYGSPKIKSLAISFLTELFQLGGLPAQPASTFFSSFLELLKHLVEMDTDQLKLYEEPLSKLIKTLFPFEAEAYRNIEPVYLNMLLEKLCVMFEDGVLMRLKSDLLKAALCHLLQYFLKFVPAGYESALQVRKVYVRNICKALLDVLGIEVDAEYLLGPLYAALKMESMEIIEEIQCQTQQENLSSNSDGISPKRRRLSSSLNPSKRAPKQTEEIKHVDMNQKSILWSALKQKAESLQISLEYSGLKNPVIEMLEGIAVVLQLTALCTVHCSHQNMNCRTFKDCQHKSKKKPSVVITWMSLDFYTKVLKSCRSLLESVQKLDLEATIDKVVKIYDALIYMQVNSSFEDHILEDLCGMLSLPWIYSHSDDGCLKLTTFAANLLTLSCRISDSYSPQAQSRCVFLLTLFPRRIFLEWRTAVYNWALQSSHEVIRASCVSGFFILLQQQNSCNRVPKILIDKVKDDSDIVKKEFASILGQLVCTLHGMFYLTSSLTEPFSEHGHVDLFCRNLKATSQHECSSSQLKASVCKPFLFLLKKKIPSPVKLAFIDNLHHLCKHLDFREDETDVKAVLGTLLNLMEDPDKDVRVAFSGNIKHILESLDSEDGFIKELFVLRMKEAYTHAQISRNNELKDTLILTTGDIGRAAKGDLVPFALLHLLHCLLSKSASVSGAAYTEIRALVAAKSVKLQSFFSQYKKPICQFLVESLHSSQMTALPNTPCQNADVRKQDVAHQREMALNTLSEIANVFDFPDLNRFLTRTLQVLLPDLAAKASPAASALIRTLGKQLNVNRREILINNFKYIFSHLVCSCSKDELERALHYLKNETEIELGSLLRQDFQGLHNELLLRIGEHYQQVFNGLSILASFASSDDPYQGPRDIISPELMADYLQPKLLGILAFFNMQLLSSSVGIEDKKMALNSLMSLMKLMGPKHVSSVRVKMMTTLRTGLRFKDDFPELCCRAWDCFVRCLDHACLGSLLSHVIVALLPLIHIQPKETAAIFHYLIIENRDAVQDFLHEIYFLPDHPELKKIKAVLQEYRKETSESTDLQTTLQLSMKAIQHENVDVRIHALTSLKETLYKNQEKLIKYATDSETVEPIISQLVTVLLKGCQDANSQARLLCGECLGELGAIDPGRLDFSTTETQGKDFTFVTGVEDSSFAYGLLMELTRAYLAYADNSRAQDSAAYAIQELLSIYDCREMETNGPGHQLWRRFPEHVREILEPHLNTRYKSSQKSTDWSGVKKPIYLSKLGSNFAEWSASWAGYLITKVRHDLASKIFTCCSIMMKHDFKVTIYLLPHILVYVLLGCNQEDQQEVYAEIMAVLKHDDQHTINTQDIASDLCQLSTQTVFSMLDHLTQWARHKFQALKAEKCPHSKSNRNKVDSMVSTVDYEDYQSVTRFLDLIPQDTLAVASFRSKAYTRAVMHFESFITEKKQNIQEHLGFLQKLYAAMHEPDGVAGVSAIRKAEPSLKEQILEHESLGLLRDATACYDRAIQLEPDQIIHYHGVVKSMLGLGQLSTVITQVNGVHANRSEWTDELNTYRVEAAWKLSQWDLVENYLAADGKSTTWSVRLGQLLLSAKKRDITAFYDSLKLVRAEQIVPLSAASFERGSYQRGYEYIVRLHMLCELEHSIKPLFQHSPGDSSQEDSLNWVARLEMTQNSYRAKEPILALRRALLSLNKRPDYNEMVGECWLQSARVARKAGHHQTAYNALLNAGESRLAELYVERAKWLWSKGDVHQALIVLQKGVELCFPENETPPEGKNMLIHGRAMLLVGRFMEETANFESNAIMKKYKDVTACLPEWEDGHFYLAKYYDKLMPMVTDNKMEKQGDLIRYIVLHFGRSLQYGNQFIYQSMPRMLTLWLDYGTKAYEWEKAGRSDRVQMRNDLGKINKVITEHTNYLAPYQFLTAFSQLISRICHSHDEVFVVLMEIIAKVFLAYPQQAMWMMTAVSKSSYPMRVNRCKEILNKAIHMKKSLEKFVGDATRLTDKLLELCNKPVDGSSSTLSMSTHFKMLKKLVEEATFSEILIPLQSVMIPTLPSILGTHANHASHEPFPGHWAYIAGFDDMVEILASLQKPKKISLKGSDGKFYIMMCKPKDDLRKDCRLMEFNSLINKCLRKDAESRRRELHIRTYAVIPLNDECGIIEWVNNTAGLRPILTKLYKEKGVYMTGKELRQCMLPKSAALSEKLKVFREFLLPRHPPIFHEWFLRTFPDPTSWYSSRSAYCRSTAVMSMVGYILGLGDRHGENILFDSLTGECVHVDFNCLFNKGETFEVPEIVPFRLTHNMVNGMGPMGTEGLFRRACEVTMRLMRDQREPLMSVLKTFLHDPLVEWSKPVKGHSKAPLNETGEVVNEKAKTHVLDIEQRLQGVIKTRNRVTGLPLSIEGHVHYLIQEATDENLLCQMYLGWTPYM

SMILES	EC50 (ATR [1]; hydroxyurea 2.5 mM)	inhibition at 10 µM (ATR [2])	inhibition at 10 µM (ATM)	IC50 (PI3K (p110α/p85α))	IC50 (mTOR)	IC50 (DNA-PK)	also measured
CNc1nc2ccccc2n1-c1nc2c(c(C(C)(C)S(C)(=O)=O)n1)OCC1COCCN21 (centres unmarked) [Example 8]	< 100 nM	98%	25%	–	–	–	–
CNc1nc2ccccc2n1-c1nc2c(c(C(C)(C)S(C)(=O)=O)n1)OC[C@@H]1COCCN21 [Example 11]	< 100 nM	–	–	–	–	–	IC50 (CYP 1A2): > 50000 nM; IC50 (CYP 2C19): > 50000 nM; IC50 (CYP 2D6): > 50000 nM; tumor growth inhibition (TGI) (Eμmyc lymphoma cells; 25 mg/kg oral once daily, day 33, compared to vehicle): 53%; tumor growth inhibition (TGI) (Eμmyc lymphoma cells; 50 mg/kg oral once daily, day 33, compared to vehicle): 74%; IC50 (CYP 2C9): 34000 nM; IC50 (CYP 3A4): 39000 nM
CS(=O)(=O)C1(c2nc(-c3cccc4[nH]ccc34)nc3c2OCC2COCCN32)CCOCC1 (centres unmarked) [Example 2]	< 100 nM	98%	0%	–	–	–	–
C[C@@H]1CN(CC(=O)Nc2ccc3c(c2)Cc2cccc(-c4cc(=O)cc(N5CCOCC5)o4)c2S3)C[C@H](C)O1 [ATM inhibitor KU-60019, reference compound]	–	38%	99%	–	–	–	–
CS(=O)(=O)C1(c2nc(-c3cccc4[nH]ccc34)nc3c2OC[C@H]2COCCN32)CCOCC1 [Example 10]	100 to 1000 nM	95%	25%	–	–	–	–
O=S(=O)(Cc1nc(-c2cccc3[nH]ccc23)nc2c1OCC1COCCN21)C(F)(F)F (centres unmarked) [Example 5]	100 to 1000 nM	98%	0%	–	–	–	–
CC(C)(c1nc(-c2cccc3[nH]ccc23)nc2c1OCC1COCCN21)S(C)(=O)=O (centres unmarked) [Example 1]	< 100 nM	99%	0%	–	–	–	–
COc1cc(-c2nc3c(c(C(C)(C)O)n2)OC[C@@H]2COCCN32)c2cc[nH]c2c1 [Example 46]	100 to 1000 nM	–	–	480 nM	38 nM	2820 nM	–
CC(C)(c1nc(-c2cc(F)cc3[nH]ccc23)nc2c1OC[C@@H]1COCCN21)S(C)(=O)=O [Example 71]	< 100 nM	–	–	1080 nM	99.3 nM	10000 nM	–
CNc1nc2ccccc2n1-c1nc2c(c(C3(S(C)(=O)=O)CC3)n1)OC[C@@H]1COCCN21 [Example 66]	100 to 1000 nM	–	–	7170 nM	854 nM	2410 nM	–
CNc1nc2cc(Cl)ccc2n1-c1nc2c(c(C(C)(C)S(C)(=O)=O)n1)OC[C@@H]1COCCN21 [Example 80]	–	–	–	13100 nM	501 nM	10000 nM	EC50 (ATR [1]; hydroxyurea […]): > 1000 nM
CS(=O)(=O)C1(c2nc(-c3ccnc4[nH]ccc34)nc3c2OC[C@@H]2COCCN32)CCOCC1 [Example 30]	100 to 1000 nM	–	–	2500 nM	4680 nM	25000 nM	–
CS(=O)(=O)C1(c2nc(-c3cccc4[nH]ccc34)nc3c2OCC[C@H]2COCCN32)CCOCC1 [Example 23]	100 to 1000 nM	–	–	50000 nM	10000 nM	6370 nM	–
CNc1nc2cc(F)ccc2n1-c1nc2c(c(C(C)(C)S(C)(=O)=O)n1)OC[C@@H]1COCCN21 [Example 82]	–	–	–	5600 nM	1590 nM	10000 nM	EC50 (ATR [1]; hydroxyurea […]): 100 to 1000 nM
CNc1nc2ccc(F)cc2n1-c1nc2c(c(C(C)(C)S(C)(=O)=O)n1)OC[C@@H]1COCCN21 [Example 83]	–	–	–	12200 nM	2470 nM	3110 nM	EC50 (ATR [1]; hydroxyurea […]): 100 to 1000 nM
CS(=O)(=O)C1(c2nc(-c3cccc4[nH]ccc34)nc3c2OC[C@@H]2COCCN32)CCOCC1 [Example 3]	< 100 nM	98%	0%	–	–	–	IC50 (CYP 1A2): > 50000 nM; IC50 (CYP 2C19): > 50000 nM; tumor growth inhibition (TGI) (Eμmyc lymphoma cells; 25 mg/kg oral once daily, day 23, compared to vehicle): 46%; IC50 (CYP 2C9): > 50000 nM; IC50 (CYP 3A4): > 50000 nM
